The data set relates to rodent carcinogenicity bioassays, tumor incidence. Kind of data set: CCRIS carcinogenicity studies. The essentials: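 NCI-built, expert-reviewed records of carcinogenicity and related test outcomes (mutagenicity, tumor promotion/inhibition) compiled from published and report sources, historical span 1985-2011, not updated.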

In PubChem BioAssay AID1259411 (Chemical Carcinogenesis Research Information System (CCRIS), 2018) one finds carcinogen call data, which are given here for nine molecules.

The source made the active and inactive calls. How the calls were made is not given here.

As to `Clc1ccccc1Cl`, the carcinogen call is, setting by setting: (Species: MOUSE, Strain/Sex: B6C3F1/FEMALE, Route: GAVAGE, Dose: 0, 60, 120 MG/KG BODY WT IN CORN OIL 5 D/WK FOR 103 WK, Dose: 0, 60, 120 MG/KG BODY WT IN CORN OIL 5 D/WK FOR 103 WK) “inactive; negative”; (Species: MOUSE, Strain/Sex: B6C3F1/MALE, Route: GAVAGE, Dose: 0, 60, 120 MG/KG BODY WT IN CORN OIL 5 D/WK FOR 103 WK, Dose: 0, 60, 120 MG/KG BODY WT IN CORN OIL 5 D/WK FOR 103 WK) “inactive; negative”; (Species: RAT, Strain/Sex: F344/FEMALE, Route: GAVAGE, Dose: 0, 60, 120 MG/KG BODY WT IN CORN OIL 5 D/WK FOR 103 WK, Dose: 0, 60, 120 MG/KG BODY WT IN CORN OIL 5 D/WK FOR 103 WK) “inactive; negative”; (Species: RAT, Strain/Sex: F344/MALE, Route: GAVAGE, Dose: 0, 60, 120 MG/KG BODY WT IN CORN OIL 5 D/WK FOR 103 WK, Dose: 0, 60, 120 MG/KG BODY WT IN CORN OIL 5 D/WK FOR 103 WK) “inactive; negative”.

`CC(=O)c1ccc(S(=O)(=O)NC(=O)NC2CCCCC2)cc1`: the carcinogen call by setting is: (Species: MOUSE, Strain/Sex: B6C3F1/FEMALE, Route: ORAL, Dose: 0, 6359, 12718 PPM IN DIET, TWA, Dose: 0, 6359, 12718 PPM IN DIET, TWA) “inactive; negative”; (Species: MOUSE, Strain/Sex: B6C3F1/MALE, Route: ORAL, Dose: 0, 6359, 12718 PPM IN DIET, TWA, Dose: 0, 6359, 12718 PPM IN DIET, TWA) “inactive; negative”; (Species: RAT, Strain/Sex: F344/FEMALE, Route: ORAL, Dose: 0, 10000, 20000 PPM IN DIET, Dose: 0, 10000, 20000 PPM IN DIET) “inactive; negative”; (Species: RAT, Strain/Sex: F344/MALE, Route: ORAL, Dose: 0, 10000, 20000 PPM IN DIET, Dose: 0, 10000, 20000 PPM IN DIET) “inactive; negative”.

Take `CC(=O)C=O`: where the note is “Species: MOUSE, Strain/Sex: CD-1/FEMALE, Route: DERMAL, Dose: 0, 50 UMOL/0.1 ML DMSO 2/WK FOR 5 WK FOLLOWED 1 WK LATER BY 0.1 ML ACETONE 2/WK FOR 47 WK (STUDY DURATION: 52 WK)”, the carcinogen call was “inactive; negative”.

As for `ClCOCCOCCl`, the carcinogen call was “active; positive” (Species: MOUSE, Strain/Sex: ICR/HA SWISS/FEMALE, Route: DERMAL, Dose: 0, 1 MG IN 0.1 ML CYCLOHEXANE 3/WK FOR 502 D (STUDY DURATION: 570 D), Tumor Site: Type of Lesion: SKIN: PAPILLOMA, SKIN: SQUAMOUS CARCINOMA); “active; positive” (Species: MOUSE, Strain/Sex: ICR/HA SWISS/FEMALE, Route: INTRAPERITONEAL, Dose: 0, 0.3 MG IN 0.05 ML TRICAPRYLIN 1/WK FOR 546 D (STUDY DURATION: 570 D), Tumor Site: Type of Lesion: PERITONEUM: SARCOMA); “active; positive” (Species: MOUSE, Strain/Sex: ICR/HA SWISS/FEMALE, Route: SUBCUTANEOUS, Dose: 0, 0.3 MG IN 0.05 ML TRICAPRYLIN 1/WK FOR 569 D (STUDY DURATION: 570 D), Tumor Site: Type of Lesion: INJECTION SITE: SARCOMA).

Turning to `O=C1NCCN1/N=C/c1ccc([N+](=O)[O-])o1`, the carcinogen call (Species: RAT, Route: ORAL, Tumor Site: Type of Lesion: LYMPHATIC SYSTEM: LYMPHOBLASTIC LYMPHOMA, MAMMARY GLAND) is “active; positive”.

For `CCC(=O)N(O)c1ccc(/C=C/c2ccccc2)cc1`, the carcinogen call was “active; positive” (Species: RAT, Strain/Sex: STRAIN-CD/FEMALE, Route: INTRAPERITONEAL, Dose: 0, 10 UMOL/KG BW 2/WK FOR 6 WK (STUDY DURATION: 62 WK), Tumor Site: Type of Lesion: LIVER: NEOPLASTIC NODULE, MAMMARY GLAND: TUMOR, EAR DUCT: TUMOR, PITUITARY GLAND: CARCINOMA, Tumor Site: Type of Lesion: LIVER: NEOPLASTIC NODULE, MAMMARY GLAND: TUMOR, EAR DUCT: TUMOR, PITUITARY GLAND: CARCINOMA) and “active; positive” (Species: RAT, Strain/Sex: STRAIN-CD/MALE, Route: INTRAPERITONEAL, Dose: 0, 10 UMOL/KG BW 2/WK FOR 6 WK (STUDY DURATION: 62 WK), Tumor Site: Type of Lesion: TESTICLE: MESOTHELIOMA, PANCREAS(ACINUS): ADENOMA, PANCREAS(ISLET CELL): CARCINOMA, EAR DUCT: ADENOMA, CARCINOMA, LIVER:, Tumor Site: Type of Lesion: TESTICLE: MESOTHELIOMA, PANCREAS(ACINUS): ADENOMA, PANCREAS(ISLET CELL): CARCINOMA, EAR DUCT: ADENOMA, CARCINOMA, LIVER:).

On to `C[C@]12CC[C@@H]3c4cc(O)c(O)cc4CC[C@H]3[C@@H]1CC[C@@H]2O`, for which, under “Species: MOUSE, Strain/Sex: CD-1/FEMALE, Route: SUBCUTANEOUS, Dose: 0, 2 UG/D IN CORN OIL ON DAYS 1-5 OF LIFE (STUDY DURATION: 12-18 WK), Tumor Site: Type of Lesion: UTERUS: ADENOCARCINOMA”, the carcinogen call was “active; positive”.

With `Nc1ccc(Cl)cc1N`, the carcinogen call by setting is: (Species: MOUSE, Strain/Sex: B6C3F1/FEMALE, Route: ORAL, Dose: 0, 0.7, 1.4% TWA, IN DIET FOR 78 WK (STUDY DURATION: 96-97 WK), Dose: 0, 0.7, 1.4% TWA, IN DIET FOR 78 WK (STUDY DURATION: 96-97 WK), Tumor Site: Type of Lesion: LIVER: HEPATOCELLULAR CARCINOMA, HEPATOCELLULAR ADENOMA OR CARCINOMA) “active; positive”; (Species: MOUSE, Strain/Sex: B6C3F1/MALE, Route: ORAL, Dose: 0, 0.7, 1.4% TWA, IN DIET FOR 78 WK (STUDY DURATION: 95-97 WK), Dose: 0, 0.7, 1.4% TWA, IN DIET FOR 78 WK (STUDY DURATION: 95-97 WK), Tumor Site: Type of Lesion: LIVER: HEPATOCELLULAR CARCINOMA, HEPATOCELLULAR ADENOMA OR CARCINOMA) “active; positive”; (Species: RAT, Strain/Sex: F344/FEMALE, Route: ORAL, Dose: 0, 0.5, 1.0% IN DIET FOR 78 WK (STUDY DURATION: 106 WK), Dose: 0, 0.5, 1.0% IN DIET FOR 78 WK (STUDY DURATION: 106 WK), Tumor Site: Type of Lesion: URINARY BLADDER: PAPILLARY CARCINOMA OR TRANSITIONAL CELL CARCINOMA, PAPILLARY CARCINOMA OR TRANSITIONAL CELL CARCINOMA) “active; positive”; (Species: RAT, Strain/Sex: F344/MALE, Route: ORAL, Dose: 0, 0.5, 1.0% IN DIET FOR 78 WK (STUDY DURATION: 105-106 WK), Dose: 0, 0.5, 1.0% IN DIET FOR 78 WK (STUDY DURATION: 105-106 WK), Tumor Site: Type of Lesion: URINARY BLADDER: TRANSITIONAL CELL CARCINOMA, PAPILLOMA (NOS) OR TRANSITIONAL CELL PAPILLOMA OR TRANSITIONAL CELL CARCIN) “active; positive”.

With `CCCN(C)N=O`, the carcinogen call (Species: HAMSTER, Strain/Sex: SYRIAN/FEMALE, Route: GAVAGE, Dose: 0, 2.1 MG/KG 1/WK FOR 23-30 WK (TOTAL DOSE: 0; 0.6 MMOL) (STUDY DURATION: LIFETIME), Dose: 0, 2.1 MG/KG 1/WK FOR 23-30 WK (TOTAL DOSE: 0; 0.6 MMOL) (STUDY DURATION: LIFETIME), Tumor Site: Type of Lesion: LIVER: HEPATOCELLULAR ADENOMA, HEMANGIOSARCOMA, NASAL MUCOSA: CARCINOMA) was “active; positive”; the carcinogen call (Species: HAMSTER, Strain/Sex: SYRIAN/MALE,FEMALE, Route: SUBCUTANEOUS, Dose: 12.5, 25, 50 MG/KG 1/WK, Dose: 12.5, 25, 50 MG/KG 1/WK, Tumor Site: Type of Lesion: NASAL CAVITY: CARCINOMA, EPIDERMOID TUMOR, MUCOEPIDERMOID TUMOR, TRACHEA: PAPILLARY POLYP, LUNG: ADENOMA, CARCINOMA, LIV, Tumor Site: Type of Lesion: NASAL CAVITY: CARCINOMA, EPIDERMOID TUMOR, MUCOEPIDERMOID TUMOR, TRACHEA: PAPILLARY POLYP, LUNG: ADENOMA, CARCINOMA, LIV) is “active; positive”; the carcinogen call (Species: HAMSTER, Strain/Sex: SYRIAN/MALE, Route: GAVAGE, Dose: 0, 2.1 MG/KG 1/WK FOR 23-30 WK (TOTAL DOSE: 0; 0.6 MMOL) (STUDY DURATION: LIFETIME), Dose: 0, 2.1 MG/KG 1/WK FOR 23-30 WK (TOTAL DOSE: 0; 0.6 MMOL) (STUDY DURATION: LIFETIME), Tumor Site: Type of Lesion: LIVER: HEPATOCELLULAR ADENOMA, HEMANGIOSARCOMA, LUNG: ALVEOLAR/BRONCHIAL ADENOMA, NASAL MUCOSA: CARCINOMA, Tumor Site: Type of Lesion: LIVER: HEPATOCELLULAR ADENOMA, HEMANGIOSARCOMA, LUNG: ALVEOLAR/BRONCHIAL ADENOMA, NASAL MUCOSA: CARCINOMA) is “active; positive”; the carcinogen call (Species: MOUSE, Strain/Sex: NMRI/FEMALE, Route: SUBCUTANEOUS, Dose: 0.05, 0.1, 0.2 OF LD50 (77.1 MG/KG) 1/WK FOR LIFE, Dose: 0.05, 0.1, 0.2 OF LD50 (77.1 MG/KG) 1/WK FOR LIFE, Tumor Site: Type of Lesion: NASAL CAVITY: SQUAMOUS CELL PAPILLOMA, SQUAMOUS CELL CARCINOMA, LARYNX: PAPILLOMA, CARCINOMA (IN SITU), SQUAMOUS CELL CA) was “active; positive”.
